The results in this text go back to patent US7361735B2, “LITAF binding site peptides and methods of using the same” (Trustees of Boston University, priority 2003, dated 2008).

Bounds are passed on as bounds.

The subject of experiment [1] is THP-1 cells. The experiment can be described thus: ELISA of hTNF-α after Chariot delivery of peptide. The settings on record: PMA-matured THP-1; Chariot/peptide 1, 10, 100 ng/ml or 1 μg/ml; 24 hours; ELISA of supernatant. Type of experiment: cell-based, human. How it is done: FIG. 5 is a graphical representation of the production of TNF-α in THP-1 cells after transfection of peptide A, B, C, or HA with Chariot as described herein. The concentration of active of TNF-α was induced by various concentrations of peptide and measured by duplicate ELISA tests at the same condition and graphed.
THP-1 cells were induced to maturation by addition of […] (Sigma) and incubated at 37° C., 5% CO2 for 20 hrs, then washed with PBS twice, and stimulated (delivered) with Chariot/peptide complex of various concentrations of either peptide A or B or C or HA in a 96-well plate at 2×10^4 cells/well as indicated in the text. After 24 hrs of incubation at 37° C., 5% CO2, culture supernatants were harvested, centrifuged at 1,500×g to remove cell debris, then TNF-α was measured by ELISA (ABRAXIS, Hatboro, Pa.) and quantified on a Model 680 Microplate Reader (BioRad).
Therefore, peptides A, B, and C, were synthesized based on the amino acid sequence of hLITAF. […] After pretreatment with PMA, peptides A, B, C, or HA were introduced into THP-1 cells using Chariot, as described herein, in concentrations of 1, 10, 100 ng/ml or 1 μg/ml. After 24 hours, culture supernatants were harvested and TNF-α was quantified by ELISA. […] In contrast, peptide B increased TNF-α secretion by as much as 2.4 fold over unstimulated levels.
In general terms: An ELISA detects its analyte on a solid surface through an enzyme-linked reagent.

In experiment [2] the test system is mtTNFP1 (−991 to 1Δ−515 to −511). The experiment can be described thus: Luciferase reporter assay, full-length TNF-α promoter lacking CTCCC, THP-1. The class given is cell-based, human. The settings on record: 1 μg/ml peptide via Chariot or 100 ng/ml LPS, FIG. 6a. Here is the method: (§1) FIGS. 6a and 6b are graphical representations of the transcriptional activity of a series of deletion constructs of TNF-α promoter DNA. FIG. 6a depicts the activity measured due to either the promoter wtTNFβ (−991 to 1) or mtTNFβ1 (−991 to 1Δ−515 to −511). pGL3-basic transfected cell as unstimulated control was used. After transfection of DNAs for 3 hrs, the cells were washed with PBS twice, and stimulated with 100 ng/ml LPS (E. coli) or transfected with Chariot/peptide complex of 1 μg/ml of either peptide A, B, C, or HA. Triplicate assays were performed. Values are normalized by β-gal production and graphed. FIG. 6b depicts the activity measured due to the promoter mtTNFβ2 (−550 to −487 plus TATA box) or mtTNFβ3 (−550 to −487Δ−515 to −511 plus TATA box). LPS or peptides as stimuli and controls were used at the same condition as described above.
(§2) The following series of hTNF-α promoter DNA fragments were subcloned (FIG. 1b) into the pGL3-Basic vector, which has a promoterless and enhancerless luciferase reporter gene, available from Pharmacia: 1. wtTNFP (−991 to 1) was generated by PCR with primer pairs: 5′-[…]-3′ (SEQ ID NO: 20′) and 5′-[…]-3′(SEQ ID NO: 21′). 2. mtTNFP1 (−991 to 1Δ−515 to −511). The first in-frame mutant hTNF-α promoter was generated by PCR with primer pairs, 5′-[…]-3′(SEQ ID NO: 20) and 5′-[…] (SEQ ID NO: 22). The second mutant DNA was generated by PCR with primer pairs, 5′-[…]-3′ (SEQ ID NO: 23) and 5′-[…]-3′ (SEQ ID NO: 21). Both first and second DNA fragments above were purified and diluted as template to 1 ng/reaction and finally amplified by PCR with primer pairs, 5′-[…]-3′ (SEQ ID NO: 20) and 5′-[…]-3′ (SEQ ID NO: 21). […]
(§3) THP-1 cells (5×10^6/well) were induced to maturation by addition of […] (Sigma) and incubated at 37° C., 5% CO2 for 20 hrs, washed with PBS twice, co-transfected with 1 μg DNAs by using Fugene 6 (Roche Molecular Biochemicals) for 3 hrs, washed with PBS, then individually transfected with Chariot/peptide complex of 1 μg/ml peptide A, B, C or HA or stimulated with 100 ng/ml LPS (E. coli) for 3 hrs, washed with PBS, incubated at 37° C., 5% CO2, overnight. […] Luciferase activity in the lysates was measured using a commercial kit (Luciferase Reporter Assay System, Promega) and normalized by β-gal assay in the same lysates as described (McClane et al., Hum. Gene Ther. 10:739-746, 1997).
(§4) To determine whether the short sequence CTCCC (−515 to −511) in the hTNF-a promoter is responsible for hLITAF binding activity, a series of hTNF-α promoter/reporter constructs were cloned (see FIG. 1b) and individually transiently transfected into THP-1 cells. […] TNF-α promoter activity was subsequently analyzed using the luciferase assay. […]
In general terms: In a reporter assay the amount or activity of a reporter protein is the signal.

The test system of experiment [3] is mtTNFP2 (−550 to −487 plus TATA Box). The experiment can be described thus: Luciferase reporter assay, short TNF-α promoter fragment with LITAF binding site, THP-1. The class given is cell-based, human. The conditions noted are these: 1 μg/ml peptide via Chariot or 100 ng/ml LPS, in comparison with the HA control, FIG. 6b. How it is done:
as §1, §2, §3, §4

Experiment [4] relates to wtTNFP (−991 to 1). The experiment is described as follows: Luciferase reporter assay, wild type full-length TNF-α promoter, THP-1. The class given is cell-based, human. The conditions noted are these: 1 μg/ml peptide via Chariot or 100 ng/ml LPS, normalized by β-gal, peptide B compared with HA-stimulated cells. How it is done: as §1, §2, §3, §4
Experiment [5] has as its system COS-7 cells (wild-type p53). The experiment is described as follows: Northern blot of LITAF transcript after LPS, COS-7. The conditions noted are these: LPS 500 ng/ml for 4 hrs. The class given is cell-based. Here is the method: (§5) FIGS. 7a and 7b show the analysis of the accumulation of p53 and induction of LITAF mRNA. […] 60 μg of crude cell lysate was loaded per lane and separated on an 8% SDS-PAGE, which were then transferred to Immobilon-P. The protein blots were probed individually with monoclonal antibodies specific for p53 (DO-1, Santa cruz) or with goat polyclonal antibodies for actin (C-11, Santa cruz). p53 proteins were expressed well in lanes 2 through 4. […] Cells were incubated with 100 or 500 ng/ml of LPS for 4 or 24 hrs. Total cellular RNA was purified by using the Oligotex mRNA Kit (Qiagen). mRNA was size-fractionated on a denaturing formaldehyde-agarose gel (1.1%) and transferred onto a Hybond-N^+ membrane (Amersham). These filters were hybridized with an γ-^32P ATP-labeled DNA probe and then autoradiographed with BIOMAX MR film (Kodak).
(§6) The accumulation of p53 after LPS stimulation was investigated.

Experiment [6] concerns mtTNFP3 (−550 to −487Δ−515 to −511 plus TATA Box). The experiment is described as follows: Luciferase reporter assay, short TNF-α promoter fragment lacking LITAF binding site, THP-1. The class given is cell-based, human. The conditions noted are these: 100 ng/ml LPS, FIG. 6b. Here is the method: as §1, with “above. […]” for “above.”
as §4

The subject of experiment [7] is WTK-1 cells (p53-deficient cell line). The experiment is described as follows: Northern blot of LITAF transcript after LPS, WTK-1. Type of experiment: cell-based. The settings on record: WTK-1 p53-deficient cells. Here is the method:
as §5, §6

The test system of experiment [8] is wtTNFβ, TNF-α promoter from −991 to 1. The experiment can be described thus: Luciferase reporter assay, wild-type TNF-α promoter, WTK-1. Type of experiment: cell-based. The conditions noted are these: WTK-1 cells; normalized to β-gal; LITAF overexpressed alone without LPS stimulation. The text has this: (§7) FIG. 10 is a graphical representation of the analysis of LITAF function in luciferase reporter constructs. The series of TNF-α promoter DNA fragments were subcloned into the pGL3 basic vector (Pharmacia), a promoterless and enhancerless luciferase reporter gene. One construct, named wtTNFβ, contained TNF-α promoter from −991 to 1. Another one, mtTNFβ1, was a mutant inserted with the promoter from −991 to 1, but lacking the LITAF binding site. WTK-1 cells (grown to 85% confluence) in a 6-well plate at 1.2×10^5 cells/well were co-transfected with 1 μg DNAs including pCMV-LITAF recombinant vector, pVMVβ-gal and pGL3 basic as control by Fugene 6 (Roche Molecular Biochemicals) for 3 hrs, washed with PBS twice, then individually stimulated with LPS or Chariot/peptide complex of 100 ng/ml peptide B (peptide fragment of LITAF representing aa 152-228) or HA as control for 3 hrs, washed with PBS, incubated at 37° C., 5% CO2, o/n. The β-galactosidase gene was included in all transfections. The cells were harvested and lysed approximately 12 hrs after transfection. The promoter activity from each lysate sample was measured using the luciferase reporter assay system (Promega) and normalized to β-gal expression in the same sample, as described in the methods section below.
(§8) The activation of TNF-α gene expression by LITAF was investigated. […]

Experiment [9] concerns COS-7 cells. The experiment can be described thus: TUNEL analysis of DNA fragmentation of apoptotic cells. The class given is cell-based. How it is done: FIG. 8 depicts the TUNEL analysis of DNA fragmentation of apoptotic COS-7 cells in response to LPS. After LPS stimulation, cells were fixed in 4% methanol-free formaldehyde solution for 30 min at room temperature, then permeated with 0.1% Triton X-100 for 2 min at 4° C. After washing with PBS, the samples were stained according to the manufacturer's recommended protocol for TUNEL (Promega.). The fragmentation of apoptotic COS-7 cell nuclei was analyzed by fluorescence microscopy (panels g, f, or h). The corresponding field was also observed by standard phase contrast microscopy (panels a, b, or c).
Since the induction of LITAF follows the accumulation of p53 (FIG. 7a), the DNA fragmentation of apoptotic COS-7 cells after 4 hrs with LPS stimulation was investigated.

For experiment [10], the system named is COS-7 cells (wild-type p53). The experiment is described as follows: Western blot of p53 accumulation after LPS. Type of experiment: cell-based. The conditions noted are these: LPS 500 ng/ml for 4 hrs. How it is done: as §5, §6
The subject of experiment [11] is mtTNFβ1, promoter from −991 to 1 lacking the LITAF binding site. The experiment can be described thus: Luciferase reporter assay, mutant TNF-α promoter lacking LITAF binding site, WTK-1. The conditions noted are these: WTK-1 cells; LPS stimulation. The class given is cell-based.
Description: as §7, §8

Turning to LSSSFTPGGGSALVVS [peptide C], the “TNF-α secretion over unstimulated levels” value in experiment [1] is “did not induce any significant TNF-α secretion”. Moreover, in experiment [2], the “promoter activity (luciferase), mutant TNF-α promoter lacking the CTCCC motif” value is “no appreciable induction”. For the same substance, the “expression of luciferase, shorter reporter plasmid containing the LITAF binding site” value (“expression of luciferase” below) in experiment [3] is reported as “unable to activate”. For the same substance, the “hTNF-α promoter activity (luciferase expression), wild type promoter” value (shortened to “hTNF-α promoter activity”) in experiment [4] was “did not result in any significant increase”.

Take Lipopolysaccharide [LPS]: the LITAF transcript result in [5] was “detected”. The “activation of shorter reporter plasmid lacking the LITAF binding site” value in [6] was “activation not observed”. The LITAF transcription result in [7] is on record as “did not induce LITAF transcription”. Also, the “promoter activity (luciferase), mutant TNF-α promoter lacking the CTCCC motif” value in experiment [2] is listed as “similarly activated”. Also, the “expression of luciferase” value in experiment [3] was “strongly dependent on the presence of the LITAF binding site”. In experiment [8], the “TNF-α promoter activity (luciferase), wild-type promoter/reporter plasmid” value is “similarly activated”. Besides, the “apoptosis (TUNEL)” value in experiment [9] (100 ng/ml of LPS) is recorded as “did not induce apoptosis”. The “TUNEL-positive (apoptotic) cells” value in [9] (500 ng/ml LPS for at least 4 hrs) is listed as “significantly increased”. For the same substance, the “inducible p53 protein” value in experiment [10] was “detected”. Moreover, in experiment [11], the “TNF-α promoter activity (luciferase), mutant promoter/reporter plasmid” value was “similarly activated”. Besides, in [4], the “hTNF-α promoter activity” value is “similarly activated”.

As for SQTWREPGAAGSPFHL [peptide B], the “TNF-α secretion over unstimulated levels” value in experiment [1] was at most 2.4 fold. For the same substance, in experiment [2], the “promoter activity (luciferase), mutant TNF-α promoter lacking the CTCCC motif” value was “no appreciable induction”. For the same substance, the “expression of luciferase” value in experiment [3] is 2.3 fold. For the same substance, the “hTNF-α promoter activity” value in experiment [4] is on record as about 2 fold.

On to “SYYTQPAPIPNNNPIT VQTVY (SYYTQPAPIPNNNPITVQTVY) [peptide A]”, for which the “TNF-α secretion over unstimulated levels” value in experiment [1] is listed as “did not induce any significant TNF-α secretion”. Besides, in experiment [2], the “promoter activity (luciferase), mutant TNF-α promoter lacking the CTCCC motif” value was “no appreciable induction”. For the same substance, in [3], the “expression of luciferase” value is recorded as “unable to activate”. Further, the “hTNF-α promoter activity” value in [4] is “did not result in any significant increase”.

On to YPYDVPDYASL [HA, reference compound], for which, in experiment [1], the “TNF-α secretion over unstimulated levels” value is given as “did not induce any significant TNF-α secretion”.
